Assay type in all cases: cell-based
Test [1] deals with A431 (epidermoid carcinoma). The experiment in a line: Antiproliferative activity (CCK-8 cell viability), A431. Conditions: Homo sapiens, 72 h, read-out: Antiproliferative activity in cancerous cells, A431 (inhibition of cell growth); for inhibition at 3.3 µM: A-431, Compound concentration: 3.3 μM; for inhibition at 10 µM: A-431, Compound concentration: 10 μM. Summed up: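 Cell viability of compound-treated A431 cells was measured with a Cell Counting Kit-8. Each well received 10 μL of CCK-8 after 72 h of compound exposure, followed by 4 h incubation at 37° C. and a 450 nm plate-reader measurement. Percent viability was calculated relative to DMSO controls across replicates.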

The subject of a further test is HeLa (cervical cancer). The test can be described thus: Antiproliferative activity (CCK-8 cell viability), HeLa. Conditions: Homo sapiens, 72 h, read-out: Antiproliferative activity in cancerous cells, HELA (inhibition of cell growth); for inhibition at 3.3 µM: Compound concentration: 3.3 μM; for inhibition at 10 µM: Compound concentration: 10 μM. Summed up:
(§1)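 Cells were seeded at 2,000-5,000/well (HeLa in MEM, HepG2 and SW480 in DMEM, A549 in F-12K, all with 10% FBS) and treated with compound at 3.3, 10 or 30 μM for 72 h at 37° C. CCK-8 was added for 4 h, absorbance was read at 450 nm, and viability was expressed relative to DMSO-treated wells.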

The test system of test [2] is MDA-MB-231 (breast cancer). The test can be described thus: Antiproliferative activity (CCK-8 cell viability), MDA-MB-231. The settings on record: Homo sapiens, 72 h; for inhibition at 3.3 µM: Compound concentration: 3.3 μM; for inhibition at 3.3 µM / inhibition at 10 µM: read-out: Antiproliferative activity in cancerous cells, MDA-MB-231 (inhibition of cell growth); for inhibition at 10 µM: Compound concentration: 10 μM. The method, boiled down:
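In this CCK-8 viability assay, MDA-MB-231 cells maintained in Dulbecco's modified Eagle's medium containing 10% fetal bovine serum were placed in 96-well plates (2,000-5,000 cells/well) and treated with compound for 72 h at 37° C. A 4 h incubation with 10 μL CCK-8 followed, plates were read at 450 nm, and viability was expressed against DMSO vehicle wells across replicates.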

The subject of the next test is HepG2 (liver cancer). The experiment in a line: Antiproliferative activity (CCK-8 cell viability), HepG2. The settings on record: Homo sapiens, 72 h, read-out: Antiproliferative activity in cancerous cells, HepG2 (inhibition of cell growth); for inhibition at 3.3 µM: Compound concentration: 3.3 μM; for inhibition at 10 µM: Compound concentration: 10 μM. Summed up:
as §1

The test system of the next test is SW480 (colon cancer). The experiment in a line: Antiproliferative activity (CCK-8 cell viability), SW480. The settings on record: Homo sapiens, 72 h; for inhibition at 3.3 µM: Compound concentration: 3.3 μM; for inhibition at 3.3 µM / inhibition at 10 µM: read-out: Antiproliferative activity in cancerous cells, SW480 (inhibition of cell growth); for inhibition at 10 µM: Compound concentration: 10 μM; for inhibition at 30 µM: Compound concentration: 30 μM, read-out: Antiproliferative activity in cancerous cells, SW480. Summed up: as §1

Test [3] deals with B16F10 (malignant melanoma). The test can be described thus: Antiproliferative activity (CCK-8 cell viability), B16F10. Conditions: Mus musculus, 72 h, read-out: Antiproliferative activity in cancerous cells, B16F10 (inhibition of cell growth); for inhibition at 3.3 µM: B16-F10, Compound concentration: 3.3 μM; for inhibition at 10 µM: B16-F10, Compound concentration: 10 μM. The method, boiled down:
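Attached B16F10 cells in 96-well plates were incubated with compound at 37° C for 72 h, followed by 10 μL CCK-8 reagent per well and a further 4 h incubation. A multi-well plate reader measured absorbance at 450 nm. Percent viability across replicates was calculated against DMSO vehicle-treated cells.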

Test [4] relates to A549 (lung adenocarcinoma). The experiment in a line: Antiproliferative activity (CCK-8 cell viability), A549. Conditions: Homo sapiens, 72 h; for inhibition at 3.3 µM: Compound concentration: 3.3 μM; for inhibition at 3.3 µM / inhibition at 10 µM: read-out: Antiproliferative activity in cancerous cells, A549 (inhibition of cell growth); for inhibition at 10 µM: Compound concentration: 10 μM. Summed up: as §1

Structures are written as SMILES.

For the compound `COc1cc(Oc2ccc(Cl)cc2)ccc1/C=C1/C(C)=C(CC(=O)O)c2cc(F)ccc21` [C58, (Z)-2-(1-(4-(4-Chlorophenoxy)-2-methoxybenzylidene)-5-fluoro-2-methyl-1H-inden-3-yl)acetic acid], the inhibition at 3.3 µM in test [1] is ≥ 50%; in the test with HeLa (cervical cancer), ≥ 50%; in test [2], < 30%; in the test on HepG2 (liver cancer) it was ≥ 50%; with SW480 (colon cancer), < 30%; in test [3], ≥ 50%. The inhibition at 3.3 µM in test [4] is ≥ 50%. The inhibition at 10 µM in test [1] was ≥ 50%; in the test with HeLa (cervical cancer) it was ≥ 50%; in test [2], < 30%; in the test with HepG2 (liver cancer), ≥ 50%; in the test with SW480 (colon cancer), < 30%; in test [3] it was ≥ 50%. Moreover, the inhibition at 10 µM in test [4] was ≥ 50%. In addition, the inhibition at 30 µM in the test on SW480 (colon cancer) fell in the range of 30 to 50%.

With `CC1=C(CC(=O)O)c2cc(F)ccc2/C1=C\c1ccc(Oc2ccc(Cl)cc2)cc1Cl` [C59, (Z)-2-(1-(2-Chloro-4-(4-chlorophenoxy)benzylidene)-5-fluoro-2-methyl-1H-inden-3-yl)acetic acid], the inhibition at 3.3 µM was ≥ 50% in test [1]; ≥ 50% in the test on HeLa (cervical cancer); < 30% in test [2]; ≥ 50% with HepG2 (liver cancer); < 30% in the test with SW480 (colon cancer); < 30% in test [3]. Further, in test [4], the inhibition at 3.3 µM lay in the range of 30 to 50%. In addition, the inhibition at 10 µM in test [1] was ≥ 50%; with HeLa (cervical cancer), ≥ 50%; in test [2] it was < 30%; with HepG2 (liver cancer), ≥ 50%; in the test on SW480 (colon cancer), ≥ 50%; in test [3], ≥ 50%. Further, in test [4], the inhibition at 10 µM was ≥ 50%.

As to `CC1=C(CC(=O)O)c2cc(F)ccc2/C1=C\c1ccc(Oc2ccc(Cl)cc2)cc1` [C60, (Z)-2-(1-(4-(4-Chlorophenoxy)benzylidene)-5-fluoro-2-methyl-1H-inden-3-yl)acetic acid], the inhibition at 3.3 µM is ≥ 50% in test [1]; ≥ 50% in the test with HeLa (cervical cancer); < 30% in test [2]; ≥ 50% in the test on HepG2 (liver cancer); < 30% with SW480 (colon cancer); 30 to 50% in test [3]. Also, the inhibition at 3.3 µM in test [4] fell in the range of 30 to 50%. The inhibition at 10 µM in test [1] was ≥ 50%; with HeLa (cervical cancer), ≥ 50%; in test [2] it was < 30%; in the test on HepG2 (liver cancer) it was ≥ 50%; with SW480 (colon cancer), < 30%; in test [3] it was 30 to 50%. The inhibition at 10 µM in test [4] is ≥ 50%. The inhibition at 30 µM with SW480 (colon cancer) is 30 to 50%.

On to `CC1=C(CC(=O)O)c2cc(F)ccc2/C1=C\c1ccc(Oc2cccc(Cl)c2)cc1` [C61, (Z)-2-(1-(4-(3-Chlorophenoxy)benzylidene)-5-fluoro-2-methyl-H-inden-3-yl)acetic acid], for which the inhibition at 3.3 µM in test [1] was ≥ 50%; with HeLa (cervical cancer), 30 to 50%; in test [2] it was < 30%; in the test with HepG2 (liver cancer) it was 30 to 50%; with SW480 (colon cancer), < 30%; in test [3], < 30%. Further, the inhibition at 3.3 µM in test [4] fell in the range of 30 to 50%. The inhibition at 10 µM in test [1] is ≥ 50%; in the test on HeLa (cervical cancer), ≥ 50%; in test [2], < 30%; in the test with HepG2 (liver cancer), 30 to 50%; in the test with SW480 (colon cancer), < 30%; in test [3] it was < 30%. In test [4], the inhibition at 10 µM is ≥ 50%. Besides, the inhibition at 30 µM in the test on SW480 (colon cancer) is < 30%.

For `CC1=C(CC(=O)O)c2cc(Cl)ccc2/C1=C\c1ccc(Oc2ccc(Cl)cc2)cc1` [C62, (Z)-2-(5-Chloro-1-(4-(4-chlorophenoxy)benzylidene)-2-methyl-1H-inden-3-yl)acetic acid], the inhibition at 3.3 µM in test [1] was 30 to 50%; in the test on HeLa (cervical cancer) it was 30 to 50%; in test [2], < 30%; in the test on HepG2 (liver cancer), ≥ 50%; in the test with SW480 (colon cancer), < 30%; in test [3], < 30%. The inhibition at 3.3 µM in test [4] was 30 to 50%. Further, the inhibition at 10 µM is ≥ 50% in test [1]; ≥ 50% with HeLa (cervical cancer); < 30% in test [2]; ≥ 50% in the test on HepG2 (liver cancer); 30 to 50% in the test on SW480 (colon cancer); ≥ 50% in test [3]. Moreover, in test [4], the inhibition at 10 µM was ≥ 50%.

For `CC1=C(CC(=O)O)c2cc(Cl)ccc2/C1=C\c1ccc(Oc2ccc(F)cc2)cc1` [C63, (Z)-2-(5-Chloro-1-(4-(4-fluorophenoxy)benzylidene)-2-methyl-1H-inden-3-yl)acetic acid], the inhibition at 3.3 µM in test [1] was ≥ 50%; in the test with HeLa (cervical cancer), 30 to 50%; in test [2], < 30%; in the test with HepG2 (liver cancer) it was 30 to 50%; in the test with SW480 (colon cancer), < 30%; in test [3] it was 30 to 50%. Also, the inhibition at 3.3 µM in test [4] was in the range of 30 to 50%. In addition, the inhibition at 10 µM is ≥ 50% in test [1]; ≥ 50% in the test with HeLa (cervical cancer); < 30% in test [2]; ≥ 50% in the test with HepG2 (liver cancer); < 30% in the test with SW480 (colon cancer); 30 to 50% in test [3]. In addition, the inhibition at 10 µM in test [4] lay in the range of 30 to 50%. Moreover, the inhibition at 30 µM in test [2] (Compound concentration: 30 μM, read-out: Antiproliferative activity in cancerous cells, MDA-MB-231) was 30 to 50%; in the test on SW480 (colon cancer) it was < 30%; in test [4] (Compound concentration: 30 μM, read-out: Antiproliferative activity in cancerous cells, A549) it was 30 to 50%.

Consider `CC1=C(CC(=O)O)c2cc(F)ccc2/C1=C\c1ccc(Oc2ccc(Cl)cc2)cc1C` [C64, (Z)-2-(1-(4-(4-Chlorophenoxy)-2-methylbenzylidene)-5-fluoro-2-methyl-1H-inden-3-yl)acetic acid], for which the inhibition at 3.3 µM in test [1] was ≥ 50%; in the test with HeLa (cervical cancer), ≥ 50%; in test [2], < 30%; in the test on HepG2 (liver cancer), ≥ 50%; in the test with SW480 (colon cancer), < 30%; in test [3] it was 30 to 50%. In addition, the inhibition at 3.3 µM in test [4] was 30 to 50%. For the same compound, the inhibition at 10 µM is ≥ 50% in test [1]; ≥ 50% in the test with HeLa (cervical cancer); 30 to 50% in test [2]; ≥ 50% with HepG2 (liver cancer); ≥ 50% with SW480 (colon cancer); ≥ 50% in test [3]. In addition, in test [4], the inhibition at 10 µM is ≥ 50%.

For `CC1=C(CC(=O)O)c2cc(F)ccc2/C1=C\c1ccc(Oc2ccc(Cl)nc2)cc1` [C65, (Z)-2-(1-(4-((6-Chloropyridin-3-yl)oxy)benzylidene)-5-fluoro-2-methyl-1H-inden-3-yl)acetic acid], the inhibition at 3.3 µM in test [1] is ≥ 50%; in the test with HeLa (cervical cancer), 30 to 50%; in test [2], < 30%; with HepG2 (liver cancer), 30 to 50%; in the test on SW480 (colon cancer), < 30%; in test [3] it was 30 to 50%. The inhibition at 3.3 µM in test [4] was < 30%. For the same compound, the inhibition at 10 µM in test [1] is ≥ 50%; in the test on HeLa (cervical cancer), ≥ 50%; in test [2], < 30%; in the test on HepG2 (liver cancer) it was ≥ 50%; with SW480 (colon cancer), < 30%; in test [3], ≥ 50%. Moreover, the inhibition at 10 µM in test [4] was ≥ 50%.
